Results published in PubChem BioAssay AID330 (DTP/NCI, 2004).
Several values for one entry are separate records, joined by “and”; a condition that tells them apart may be missing. Equal entries are not always repeated. Toxic doses and inconclusive results are not listed.

Tested on: P388 leukemia ip, CD2F1 mice, survival T/C
Assay: NCI In Vivo Anticancer Drug Screen. Data for tumor model P388 Leukemia (intraperitoneal) in CD2F1 (CDF1) mice
Conditions: endpoint: median survival time, higher = longer survival
Summary of the method: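 Mice carrying the transplanted tumor received test compound or vehicle. Survival was recorded in each group, and the value is the treated-group measurement divided by that of the vehicle-treated control group.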

[1] = dose: 12.5 mg/kg/injection, schedule: Q01DX009 (ip), vehicle: saline
[2] = dose: 60.0 mg/kg/injection, schedule: Q01DX005 (ip), vehicle: Klucel (hydroxypropylcellulose) (HPC)
[3] = dose: 120.0 mg/kg/injection, schedule: Q01DX005 (ip), vehicle: Klucel (hydroxypropylcellulose) (HPC)
[4] = dose: 240.0 mg/kg/injection, schedule: Q01DX005 (ip), vehicle: Klucel (hydroxypropylcellulose) (HPC)
[5] = dose: 100.0 mg/kg/injection, schedule: Q04DX002 (ip), vehicle: saline with Tween-80
[6] = dose: 200.0 mg/kg/injection, schedule: Q04DX002 (ip), vehicle: saline with Tween-80
[7] = dose: 100.0 mg/kg/injection, schedule: Q04DX003 (ip), vehicle: saline
[8] = dose: 200.0 mg/kg/injection, schedule: Q04DX003 (ip), vehicle: saline
[9] = dose: 400.0 mg/kg/injection, schedule: Q04DX003 (ip), vehicle: saline
[10] = dose: 50.0 mg/kg/injection, schedule: Q01DX005 (ip), vehicle: saline
[11] = dose: 100.0 mg/kg/injection, schedule: Q01DX005 (ip), vehicle: saline
[12] = dose: 200.0 mg/kg/injection, schedule: Q01DX005 (ip), vehicle: saline
[13] = dose: 60.0 mg/kg/injection, schedule: Q01DX005 (ip), vehicle: saline with Tween-80
[14] = dose: 120.0 mg/kg/injection, schedule: Q01DX005 (ip), vehicle: saline with Tween-80
[15] = dose: 240.0 mg/kg/injection, schedule: Q01DX005 (ip), vehicle: saline with Tween-80
[16] = dose: 100.0 mg/kg/injection, schedule: Q01DX009 (ip), vehicle: Klucel (hydroxypropylcellulose) (HPC)

CC1CC(c2ccc3ccccc3c2)NCCNC(c2ccc3ccccc3c2)CC(C)NCCN1 (centres undefined)
T/C (dose: 0.09 mg/kg/injection, schedule: Q01DX009 (ip), vehicle: saline): 100 % of control
T/C (dose: 0.18 mg/kg/injection, schedule: Q01DX009 (ip), vehicle: saline): 103 % of control
T/C (dose: 0.36 mg/kg/injection, schedule: Q01DX009 (ip), vehicle: saline): 102 % of control
T/C (dose: 3.12 mg/kg/injection, schedule: Q01DX009 (ip), vehicle: saline): 101 % of control
T/C [1]: 101 % of control

CCN(CC)C(=NC(C)C)c1ccccc1
T/C [1]: 98 % of control
T/C (dose: 25.0 mg/kg/injection, schedule: Q01DX009 (ip), vehicle: saline): 94 % of control

CCCCCCCCCCCCS(=O)CC(C)O (centres undefined)
T/C (dose: 25.0 mg/kg/injection, schedule: Q01DX009 (ip), vehicle: saline + Tween-80 + alcohol): 99 % of control and 101 % of control
T/C (dose: 50.0 mg/kg/injection, schedule: Q01DX009 (ip), vehicle: saline + Tween-80 + alcohol): 95 % of control and 97 % of control
T/C (dose: 100.0 mg/kg/injection, schedule: Q01DX009 (ip), vehicle: saline + Tween-80 + alcohol): 92 % of control and 95 % of control
T/C (dose: 200.0 mg/kg/injection, schedule: Q01DX009 (ip), vehicle: saline + Tween-80 + alcohol): 99 % of control and 105 % of control
T/C (dose: 400.0 mg/kg/injection, schedule: Q01DX009 (ip), vehicle: saline + Tween-80 + alcohol): 99 % of control and 107 % of control

CCOCc1c(-c2ccccc2)sc2ccccc2c1=O
T/C [2]: 98 % of control
T/C [3]: 95 % of control
T/C [4]: 92 % of control

NC(Cc1ccccc1Cl)c1nn[nH]n1 (centres undefined)
T/C (dose: 25.0 mg/kg/injection, schedule: Q04DX002 (ip), vehicle: saline with Tween-80): 99 % of control and 93 % of control
T/C (dose: 50.0 mg/kg/injection, schedule: Q04DX002 (ip), vehicle: saline with Tween-80): 107 % of control and 95 % of control and 96 % of control
T/C [5]: 100 % of control
T/C [6]: 98 % of control and 100 % of control

O=C(Nc1ccc(N(CCCl)CCCl)cc1)Oc1ccc(C(=O)O)cc1
T/C (dose: 6.25 mg/kg/injection, schedule: Q01DX009 (ip), vehicle: saline with Tween-80): 179 % of control and 193 % of control
T/C (dose: 12.5 mg/kg/injection, schedule: Q01DX009 (ip), vehicle: saline with Tween-80): 185 % of control and 189 % of control
T/C (dose: 25.0 mg/kg/injection, schedule: Q01DX009 (ip), vehicle: saline with Tween-80): 106 % of control

COc1ccccc1C1NC(c2ccccc2OC)C2CCCC1C2O (centres undefined)
T/C [7]: 98 % of control
T/C [8]: 97 % of control
T/C [9]: 95 % of control

COP1(OC)(OC)OC(C)=C(C)O1
T/C (dose: 50.0 mg/kg/injection, schedule: Q01DX009 (ip), vehicle: saline): 86 % of control
T/C (dose: 100.0 mg/kg/injection, schedule: Q01DX009 (ip), vehicle: saline): 94 % of control
T/C (dose: 200.0 mg/kg/injection, schedule: Q01DX009 (ip), vehicle: saline): 86 % of control

COc1cc(N=Nc2cc(CN(C)C)c(O)c3ncccc23)c(OC)cc1N=Nc1c(Cl)cc([N+](=O)[O-])cc1Cl
T/C (dose: 50.0 mg/kg/injection, schedule: Q01DX005 (ip), vehicle: saline with Tween-80): 104 % of control
T/C (dose: 100.0 mg/kg/injection, schedule: Q01DX005 (ip), vehicle: saline with Tween-80): 100 % of control
T/C (dose: 200.0 mg/kg/injection, schedule: Q01DX005 (ip), vehicle: saline with Tween-80): 109 % of control

CN(c1c(N)nc(N)nc1N)S(=O)(=O)c1ccc([N+](=O)[O-])cc1
T/C [2]: 108 % of control
T/C [3]: 104 % of control
T/C [4]: 100 % of control

Cc1cc(C)n(C(=O)n2nc(C)cc2C)n1
T/C [10]: 100 % of control
T/C [11]: 107 % of control
T/C [12]: 100 % of control

COCC1OC1COC (centres undefined)
T/C [10]: 107 % of control
T/C [11]: 104 % of control
T/C [12]: 106 % of control

Cc1cc(-c2nc(-c3cc(C)c(O)c(C)c3)nc(-c3cc(C)c(O)c(C)c3)n2)cc(C)c1O
T/C (dose: 50.0 mg/kg/injection, schedule: Q04DX003 (ip), vehicle: Klucel (hydroxypropylcellulose) (HPC)): 100 % of control
T/C (dose: 100.0 mg/kg/injection, schedule: Q04DX003 (ip), vehicle: Klucel (hydroxypropylcellulose) (HPC)): 106 % of control
T/C (dose: 200.0 mg/kg/injection, schedule: Q04DX003 (ip), vehicle: Klucel (hydroxypropylcellulose) (HPC)): 105 % of control

O=C([O-])c1cc(Br)cc(Br)c1[OH2+].O=C([O-])c1cc(Br)cc(Br)c1[OH2+].[Mn+2]
T/C [13]: 109 % of control
T/C [14]: 115 % of control

c1ccc2c(c1)ccc1cc3cccc[n+]3cc12
T/C (dose: 0.5 mg/kg/injection, schedule: Q01DX009 (ip), vehicle: saline): 92 % of control
T/C (dose: 1.0 mg/kg/injection, schedule: Q01DX009 (ip), vehicle: saline): 103 % of control
T/C (dose: 2.0 mg/kg/injection, schedule: Q01DX009 (ip), vehicle: saline): 92 % of control

O=c1nnc(O)c2ccn(O)cc1-2
T/C [13]: 99 % of control
T/C [14]: 103 % of control
T/C [15]: 99 % of control

Cc1ccnc(NC(=O)Nc2cc(F)ccc2F)c1
T/C (dose: 30.0 mg/kg/injection, schedule: Q01DX005 (ip), vehicle: saline with Tween-80): 87 % of control
T/C [13]: 87 % of control and 89 % of control
T/C [14]: 101 % of control
T/C [15]: 87 % of control

CC(=O)c1ccc(NN=NCCF)cc1
T/C (dose: 1.56 mg/kg/injection, schedule: Q01DX009 (ip), vehicle: water): 107 % of control
T/C (dose: 6.25 mg/kg/injection, schedule: Q01DX009 (ip), vehicle: water): 154 % of control
T/C (dose: 12.5 mg/kg/injection, schedule: Q01DX009 (ip), vehicle: distilled water + Tween-80): 271 % of control

[Cl][Pd][Cl].[NH-]CCN1CC1
T/C (dose: 25.0 mg/kg/injection, schedule: Q01DX009 (ip), vehicle: Klucel (hydroxypropylcellulose) (HPC)): 119 % of control
T/C (dose: 50.0 mg/kg/injection, schedule: Q01DX009 (ip), vehicle: Klucel (hydroxypropylcellulose) (HPC)): 112 % of control
T/C [16]: 114 % of control

CC1CC(c2ccc(Cl)cc2)C(c2ccc(Cl)cc2)C(=O)O1 (centres undefined)
T/C [16]: 90 % of control

CCN(CC)CCOC(=O)c1c[nH]c2ccccc12
T/C (dose: 6.25 mg/kg/injection, schedule: Q01DX005 (ip), vehicle: Klucel (hydroxypropylcellulose) (HPC)): 100 % of control
T/C (dose: 12.5 mg/kg/injection, schedule: Q01DX005 (ip), vehicle: Klucel (hydroxypropylcellulose) (HPC)): 105 % of control
T/C (dose: 25.0 mg/kg/injection, schedule: Q01DX005 (ip), vehicle: Klucel (hydroxypropylcellulose) (HPC)): 105 % of control
T/C (dose: 50.0 mg/kg/injection, schedule: Q01DX005 (ip), vehicle: Klucel (hydroxypropylcellulose) (HPC)): 98 % of control and 95 % of control
T/C (dose: 100.0 mg/kg/injection, schedule: Q01DX005 (ip), vehicle: Klucel (hydroxypropylcellulose) (HPC)): 100 % of control

Cc1ccc2ccc3ccc(CBr)nc3c2n1
T/C (dose: 3.12 micromoles/kg, schedule: Q01DX005 (ip), vehicle: other): 110 % of control
T/C (dose: 6.25 micromoles/kg, schedule: Q01DX005 (ip), vehicle: other): 99 % of control
T/C (dose: 12.0 micromoles/kg, schedule: Q01DX005 (ip), vehicle: other): 111 % of control

Cc1ncc(C(=O)O)n1C(C)c1ccccc1 (centres undefined)
T/C [13]: 108 % of control
T/C [14]: 103 % of control
T/C [15]: 110 % of control

CSC(=S)c1ccccc1NS(=O)(=O)c1ccccc1
T/C [7]: 113 % of control
T/C [8]: 103 % of control
T/C [9]: 108 % of control

N#CC(Br)(Br)C#N
T/C (dose: 3.13 mg/kg/injection, schedule: Q01DX009 (ip), vehicle: Klucel (hydroxypropylcellulose) (HPC)): 117 % of control
T/C (dose: 6.25 mg/kg/injection, schedule: Q01DX009 (ip), vehicle: Klucel (hydroxypropylcellulose) (HPC)): 114 % of control

COc1cccc2c(NCCCCCCCCNc3c4ccccc4nc4c(OC)cccc34)c3ccccc3nc12
T/C (dose: 1.25 mg/kg/injection, schedule: Q01DX009 (ip), vehicle: lactic acid): 169 % of control
T/C (dose: 2.5 mg/kg/injection, schedule: Q01DX009 (ip), vehicle: lactic acid): 189 % of control
T/C (dose: 5.0 mg/kg/injection, schedule: Q01DX009 (ip), vehicle: other): 154 % of control

COc1ccc(C2[C@H](C(=O)O)c3ccccc3C(=O)N2Cc2ccccc2)cc1 (some centres undefined)
T/C [5]: 101 % of control
T/C [6]: 104 % of control
T/C (dose: 400.0 mg/kg/injection, schedule: Q04DX002 (ip), vehicle: saline with Tween-80): 103 % of control
